Laboratory results: paper PMC8524670 (Pharmacology Research & Perspectives, 2021)
Where a name gives a salt, the structure may show the parent alone.

Assays:
CYP3A = conditions: cited from earlier work
P-gp [1] = biological target: T1, P-gp (Homo sapiens, UniProt P08183); conditions: healthy subjects; cited from earlier work
OAT3 [2] = biological target: T2, OAT3 (Homo sapiens, UniProt Q8TCC7); assay: SLC inhibition assay in HEK293 cells; assay type: in vitro ADME; conditions: human, HEK293 cells overexpressing OAT3 (and MOCK cells), probe estrone sulfate
T2 sequence (Q8TCC7 1-542): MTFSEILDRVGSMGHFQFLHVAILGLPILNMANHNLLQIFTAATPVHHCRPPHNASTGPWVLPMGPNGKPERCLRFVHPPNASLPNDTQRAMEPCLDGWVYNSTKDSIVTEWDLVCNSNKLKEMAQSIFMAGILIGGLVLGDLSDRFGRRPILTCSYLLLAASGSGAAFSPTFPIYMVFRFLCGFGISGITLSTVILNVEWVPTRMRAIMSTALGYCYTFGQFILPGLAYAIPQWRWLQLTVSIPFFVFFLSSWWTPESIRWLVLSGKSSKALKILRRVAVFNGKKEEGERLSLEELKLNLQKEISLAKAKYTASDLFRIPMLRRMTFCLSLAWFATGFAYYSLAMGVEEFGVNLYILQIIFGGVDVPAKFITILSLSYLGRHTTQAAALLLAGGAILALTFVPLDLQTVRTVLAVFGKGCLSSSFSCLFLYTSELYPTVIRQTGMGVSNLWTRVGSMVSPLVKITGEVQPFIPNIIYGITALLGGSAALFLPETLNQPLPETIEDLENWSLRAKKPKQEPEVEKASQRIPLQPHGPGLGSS

OCT2 [3] = biological target: T3, OCT2 (Homo sapiens, UniProt O15244); assay: SLC transportation assay in HEK293 cells; assay type: in vitro ADME; conditions: control substrate, 50 µM
T3 sequence (O15244 1-555): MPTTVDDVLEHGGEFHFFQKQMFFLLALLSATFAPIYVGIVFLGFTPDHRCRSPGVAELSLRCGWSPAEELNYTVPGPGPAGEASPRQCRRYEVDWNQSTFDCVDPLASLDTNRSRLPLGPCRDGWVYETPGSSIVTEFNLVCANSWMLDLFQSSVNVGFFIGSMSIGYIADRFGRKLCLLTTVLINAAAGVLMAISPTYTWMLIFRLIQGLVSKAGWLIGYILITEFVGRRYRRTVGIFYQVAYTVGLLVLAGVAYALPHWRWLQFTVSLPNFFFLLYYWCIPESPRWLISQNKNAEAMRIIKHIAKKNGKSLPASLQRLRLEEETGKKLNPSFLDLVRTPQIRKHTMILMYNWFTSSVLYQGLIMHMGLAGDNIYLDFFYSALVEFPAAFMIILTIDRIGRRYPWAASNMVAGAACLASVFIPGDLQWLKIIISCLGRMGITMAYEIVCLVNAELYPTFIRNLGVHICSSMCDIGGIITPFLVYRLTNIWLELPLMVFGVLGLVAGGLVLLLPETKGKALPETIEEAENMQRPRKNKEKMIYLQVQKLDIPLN

OAT3 [4] = biological target: T2, OAT3; assay: SLC transportation assay in HEK293 cells; assay type: in vitro ADME; conditions: control substrate, 20 µM
OATP1B3 = biological target: T4, OATP1B3 (Homo sapiens, UniProt Q9NPD5); assay: SLC transportation assay in HEK293 cells; assay type: in vitro ADME; conditions: control substrate, 20 µM
T4 sequence (Q9NPD5 1-702): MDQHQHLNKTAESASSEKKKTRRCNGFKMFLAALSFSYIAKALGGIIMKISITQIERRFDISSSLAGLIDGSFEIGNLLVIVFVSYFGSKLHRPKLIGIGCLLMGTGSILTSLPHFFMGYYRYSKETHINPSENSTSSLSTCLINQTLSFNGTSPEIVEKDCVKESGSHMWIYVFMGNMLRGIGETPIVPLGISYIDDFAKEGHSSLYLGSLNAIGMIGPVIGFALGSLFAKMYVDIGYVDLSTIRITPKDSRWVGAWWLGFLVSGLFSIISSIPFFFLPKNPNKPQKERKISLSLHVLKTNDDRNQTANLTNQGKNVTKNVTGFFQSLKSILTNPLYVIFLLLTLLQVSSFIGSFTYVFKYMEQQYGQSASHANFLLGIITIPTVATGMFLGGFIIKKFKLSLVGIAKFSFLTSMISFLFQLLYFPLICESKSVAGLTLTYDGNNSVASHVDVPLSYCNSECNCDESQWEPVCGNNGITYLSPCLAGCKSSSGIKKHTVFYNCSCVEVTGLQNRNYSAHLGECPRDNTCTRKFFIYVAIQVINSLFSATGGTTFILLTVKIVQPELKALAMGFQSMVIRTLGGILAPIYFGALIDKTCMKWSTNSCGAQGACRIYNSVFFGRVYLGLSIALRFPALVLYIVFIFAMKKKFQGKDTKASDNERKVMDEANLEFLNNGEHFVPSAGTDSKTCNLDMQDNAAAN

OATP1B1 = biological target: T5, OATP1B1 (Homo sapiens, UniProt Q9Y6L6); assay: SLC transportation assay in HEK293 cells; assay type: in vitro ADME; conditions: control substrate, 20 µM
T5 sequence (Q9Y6L6 1-691): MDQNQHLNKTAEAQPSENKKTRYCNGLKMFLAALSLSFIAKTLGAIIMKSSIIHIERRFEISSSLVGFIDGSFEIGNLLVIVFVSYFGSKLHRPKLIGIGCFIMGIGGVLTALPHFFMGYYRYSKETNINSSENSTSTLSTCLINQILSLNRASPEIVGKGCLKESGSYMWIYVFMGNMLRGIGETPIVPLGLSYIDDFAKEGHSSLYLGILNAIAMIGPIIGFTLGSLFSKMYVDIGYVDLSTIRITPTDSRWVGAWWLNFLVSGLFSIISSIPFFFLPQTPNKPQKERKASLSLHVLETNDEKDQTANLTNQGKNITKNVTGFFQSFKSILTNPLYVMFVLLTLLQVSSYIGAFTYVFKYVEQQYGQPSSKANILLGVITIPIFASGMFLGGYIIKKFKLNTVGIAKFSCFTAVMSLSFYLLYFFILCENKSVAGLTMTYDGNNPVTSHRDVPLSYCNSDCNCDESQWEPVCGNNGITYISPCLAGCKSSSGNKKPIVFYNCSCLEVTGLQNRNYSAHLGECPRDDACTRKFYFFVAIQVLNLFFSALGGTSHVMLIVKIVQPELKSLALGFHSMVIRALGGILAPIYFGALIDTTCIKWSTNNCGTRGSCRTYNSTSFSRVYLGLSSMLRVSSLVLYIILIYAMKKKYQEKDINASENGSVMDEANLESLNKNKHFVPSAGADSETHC

CYP2B6 = assay: CYP induction in human hepatocytes; assay type: in vitro ADME; conditions: human, cryopreserved human hepatocytes
CYP1A2 = assay: in vitro; conditions: human, positive control omeprazole 50 µM
OCT2 [5] = biological target: T3, OCT2; assay: SLC inhibition assay in HEK293 cells; assay type: in vitro ADME; conditions: human, HEK293 cells overexpressing OCT2 (and MOCK cells), probe metformin
P-gp [6] = biological target: T1, P-gp; assay: P-gp inhibition in Caco-2 cells; assay type: in vitro ADME; conditions: human, Caco-2, probe digoxin
human BCRP [7] = biological target: T6, human BCRP (Homo sapiens, UniProt Q9UNQ0); assay: BCRP transportation in inside-out vesicles; assay type: in vitro ADME; conditions: BCRP vesicles, LFY 10 μM probe substrate
T6 sequence (Q9UNQ0 1-655): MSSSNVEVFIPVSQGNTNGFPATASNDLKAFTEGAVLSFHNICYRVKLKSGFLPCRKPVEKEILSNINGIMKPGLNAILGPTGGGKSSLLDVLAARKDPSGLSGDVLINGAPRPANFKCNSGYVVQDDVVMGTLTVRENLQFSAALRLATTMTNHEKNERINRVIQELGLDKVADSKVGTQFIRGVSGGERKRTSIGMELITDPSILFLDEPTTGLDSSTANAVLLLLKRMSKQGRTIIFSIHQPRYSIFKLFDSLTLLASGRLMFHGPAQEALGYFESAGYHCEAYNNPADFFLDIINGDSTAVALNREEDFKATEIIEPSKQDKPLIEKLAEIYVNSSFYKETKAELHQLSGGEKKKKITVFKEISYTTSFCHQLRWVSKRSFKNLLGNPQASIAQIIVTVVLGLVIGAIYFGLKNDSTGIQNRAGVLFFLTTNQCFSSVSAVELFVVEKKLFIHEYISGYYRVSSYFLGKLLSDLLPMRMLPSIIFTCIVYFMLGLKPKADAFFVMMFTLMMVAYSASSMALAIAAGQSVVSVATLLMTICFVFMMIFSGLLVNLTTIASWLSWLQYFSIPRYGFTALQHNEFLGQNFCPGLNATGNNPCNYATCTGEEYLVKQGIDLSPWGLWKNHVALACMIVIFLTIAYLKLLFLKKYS

human BCRP [8] = biological target: T6, human BCRP; assay: BCRP inhibition in vesicles; assay type: in vitro ADME; conditions: BCRP inhibition assay, buffer vehicle

T1 sequence (P08183 whole entry): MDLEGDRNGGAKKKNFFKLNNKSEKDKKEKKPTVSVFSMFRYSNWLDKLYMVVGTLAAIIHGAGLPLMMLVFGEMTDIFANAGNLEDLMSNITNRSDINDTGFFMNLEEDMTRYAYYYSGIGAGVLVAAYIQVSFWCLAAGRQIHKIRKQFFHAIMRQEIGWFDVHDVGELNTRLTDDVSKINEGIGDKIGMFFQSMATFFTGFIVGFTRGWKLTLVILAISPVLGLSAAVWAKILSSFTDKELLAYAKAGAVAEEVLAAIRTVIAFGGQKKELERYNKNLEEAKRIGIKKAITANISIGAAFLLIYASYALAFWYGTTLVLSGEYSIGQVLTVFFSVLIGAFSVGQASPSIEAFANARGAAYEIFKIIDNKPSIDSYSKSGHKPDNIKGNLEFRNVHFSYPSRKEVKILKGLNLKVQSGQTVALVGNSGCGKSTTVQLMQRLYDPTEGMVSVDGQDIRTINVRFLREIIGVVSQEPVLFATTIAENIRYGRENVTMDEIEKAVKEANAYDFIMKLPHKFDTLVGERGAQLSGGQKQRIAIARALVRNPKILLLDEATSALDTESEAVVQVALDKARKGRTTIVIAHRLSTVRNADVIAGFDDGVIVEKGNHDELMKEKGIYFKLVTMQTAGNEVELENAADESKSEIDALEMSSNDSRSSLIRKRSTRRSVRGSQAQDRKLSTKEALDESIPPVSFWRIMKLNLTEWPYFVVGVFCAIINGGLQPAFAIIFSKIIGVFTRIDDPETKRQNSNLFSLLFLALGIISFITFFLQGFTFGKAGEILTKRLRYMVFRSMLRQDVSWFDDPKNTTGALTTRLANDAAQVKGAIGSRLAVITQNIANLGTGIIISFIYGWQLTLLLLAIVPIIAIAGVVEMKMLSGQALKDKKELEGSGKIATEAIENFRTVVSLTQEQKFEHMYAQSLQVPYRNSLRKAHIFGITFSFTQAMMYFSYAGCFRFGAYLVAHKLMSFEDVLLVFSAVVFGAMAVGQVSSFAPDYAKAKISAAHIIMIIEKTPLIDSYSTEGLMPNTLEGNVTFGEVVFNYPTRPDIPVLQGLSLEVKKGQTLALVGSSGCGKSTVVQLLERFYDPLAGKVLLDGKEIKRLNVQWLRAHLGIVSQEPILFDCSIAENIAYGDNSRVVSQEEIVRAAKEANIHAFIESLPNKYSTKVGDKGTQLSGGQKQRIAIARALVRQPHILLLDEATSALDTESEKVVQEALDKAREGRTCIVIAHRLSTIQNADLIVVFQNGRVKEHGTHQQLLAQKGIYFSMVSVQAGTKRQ

CC[C@H](Nc1ncnc2[nH]cnc12)c1nc2cccc(F)c2c(=O)n1-c1ccccc1 [idelalisib]
Increase of exposure of midazolam (CYP3A): 5.15 fold

CCOc1cc2ncc(C#N)c(Nc3ccc(OCc4ccccn4)c(Cl)c3)c2cc1NC(=O)/C=C/CN(C)C [neratinib]
Increase of AUC of digoxin (P-gp [1]): 32%
Increase of mean digoxin C max (P-gp [1]): 54%

CCCN(CCC)S(=O)(=O)c1ccc(C(=O)O)cc1 [Probenecid, reference compound]
activity at 50 µM (OAT3 [2]): 12.5 ± 8%

CN(C)C(=N)N=C(N)N [Metformin, reference compound]
Uptake ratio (OCT2 [3]): 3.49 ± 0.26

C[C@]12CC[C@@H]3c4ccc(OS(=O)(=O)O)cc4CC[C@H]3[C@@H]1CCC2=O [Estrone sulfate, reference compound]
Uptake ratio (OAT3 [4]): 16.1 ± 0.45

C[C@]12CC[C@@H]3c4ccc(O)cc4CC[C@H]3[C@@H]1CC[C@@H]2O[C@@H]1O[C@H](C(=O)O)[C@@H](O)[C@H](O)[C@H]1O [Estradiol‐17β‐glucuronide, reference compound]
Uptake ratio (OATP1B3): 5.82 ± 0.62
Uptake ratio (OATP1B1): 38.5 ± 5.5

CCC1(c2ccccc2)C(=O)NC(=O)NC1=O [phenobarbital, reference compound]
fold induction at 2 days, 1000 µM (CYP2B6): 6.4 ± 3
fold induction at 2 days, 1000 µM (CYP2B6; probe bupropion): 9.6 ± 5.4

COc1ccc2[nH]c([S+]([O-])Cc3ncc(C)c(OC)c3C)nc2c1 (stereo not shown) [Omeprazole]
fold induction at 2 days, 50 µM (CYP1A2; Fold induction of activity): 42 ± 6.4
fold induction at 2 days, 50 µM (CYP1A2; Fold induction of mRNA level): 82 ± 94

C=C[C@H]1C[N@@]2CC[C@H]1C[C@@H]2[C@@H](O)c1ccnc2ccc(OC)cc12 [Quinidine, reference compound]
activity at 500 µM (OCT2 [5]): 31.5 ± 8%

C[C@H]1O[C@@H](O[C@H]2[C@@H](O)C[C@H](O[C@H]3[C@@H](O)C[C@H](O[C@H]4CC[C@@]5(C)[C@H](CC[C@@H]6[C@@H]5C[C@@H](O)[C@]5(C)[C@@H](C7=CC(=O)OC7)CC[C@]65O)C4)O[C@@H]3C)O[C@@H]2C)C[C@H](O)[C@@H]1O [Digoxin, reference compound]
Papp B→A at 120 min, 10 µM (P-gp [6]): 15.4 ± 0.4 ×10⁻⁶ cm/s

Lucifer Yellow [LFY, reference compound]
Uptake ratio (ATP versus AMP) (human BCRP [7]): 17.4 ± 0.31 fold
Uptake ratio of LFY (human BCRP [8]): 14.9 fold
